Experiment: xn = mol fraction of the nth substance listed
Details: Liquid, Bellows volumetry

CC(C)C [2-methylpropane] + CCC
mass density [kg/m3]
Details	280 K	300 K	320 K	340 K	360 K	380 K	400 K	420 K	440 K
1000 kPa, x2 = 0.2765	562.64	–	508.11	–	–	–	–	–	–
1000 kPa, x2 = 0.5052	551.34	524.22	–	–	–	–	–	–	–
1000 kPa, x2 = 0.7468	537.6	–	–	–	–	–	–	–	–
2000 kPa, x2 = 0.2765	564.6	–	511.38	–	–	–	–	–	–
2000 kPa, x2 = 0.5052	553.2	526.6	497.06	461.7	–	–	–	–	–
2000 kPa, x2 = 0.7468	539.46	–	479.56	–	–	–	–	–	–
3000 kPa, x2 = 0.2765	566.3	–	514.42	–	445.63	–	–	–	–
3000 kPa, x2 = 0.5052	555.01	529.08	500.46	467.03	423.27	–	–	–	–
3000 kPa, x2 = 0.7468	541.38	–	483.56	–	–	–	–	–	–
5000 kPa, x2 = 0.2765	569.29	–	520.11	–	458.57	–	353.34	–	–
5000 kPa, x2 = 0.5052	558.39	533.59	506.63	476.37	439.84	390.11	–	–	–
5000 kPa, x2 = 0.7468	545.05	–	490.55	–	415.25	–	–	–	–
10000 kPa, x2 = 0.2765	576.64	–	531.88	–	480.82	–	418.11	–	–
10000 kPa, x2 = 0.5052	565.97	543.3	519.45	493.82	465.78	433.73	396.98	353.95	–
10000 kPa, x2 = 0.7468	553.18	–	504.71	–	447.04	–	370.08	–	–
20000 kPa, x2 = 0.2765	589.39	–	550.35	–	509.06	–	464.84	–	418.57
20000 kPa, x2 = 0.5052	579.24	559.15	538.88	518.13	496.7	473.66	450.18	426.22	401.72
20000 kPa, x2 = 0.7468	566.92	–	525.65	–	481.36	–	432.58	–	381.56
30000 kPa, x2 = 0.2765	600.09	–	564.57	–	528.67	–	491.48	–	455.11
30000 kPa, x2 = 0.5052	590.28	572.02	553.95	535.68	517.29	498.04	478.86	459.76	441.26
30000 kPa, x2 = 0.7468	578.25	–	541.33	–	503.41	–	463.78	–	424.79
40000 kPa, x2 = 0.2765	609.41	–	576.53	–	543.99	–	510.96	–	479.61
40000 kPa, x2 = 0.5052	599.56	582.88	566.43	549.83	533.27	516.11	499.19	482.81	467.04
40000 kPa, x2 = 0.7468	588.02	–	553.96	–	520.23	–	485.32	–	452.26
50000 kPa, x2 = 0.2765	617.7	–	586.9	–	556.8	–	526.54	–	498.3
50000 kPa, x2 = 0.5052	608.07	592.36	576.96	561.5	546.45	530.72	515.41	500.59	486.62
50000 kPa, x2 = 0.7468	596.76	–	564.8	–	534.15	–	502.4	–	472.75
60000 kPa, x2 = 0.2765	625.03	–	595.84	–	567.78	–	539.61	–	513.76
60000 kPa, x2 = 0.5052	615.65	600.74	586.25	571.92	557.79	543.03	528.8	515.22	502.39
60000 kPa, x2 = 0.7468	604.59	–	574.56	–	545.73	–	516.38	–	489.17
70000 kPa, x2 = 0.2765	632.03	–	604.2	–	577.53	–	550.88	–	526.7
70000 kPa, x2 = 0.5052	622.58	608.66	594.64	581.17	567.64	553.8	540.38	527.71	515.83
70000 kPa, x2 = 0.7468	611.65	–	583.04	–	555.96	–	528.32	–	503.08
80000 kPa, x2 = 0.2765	638.32	–	611.65	–	586.26	–	560.85	–	538.18
80000 kPa, x2 = 0.5052	629.12	615.58	602.37	589.45	576.76	563.25	550.76	538.65	527.49
80000 kPa, x2 = 0.7468	618.29	–	590.88	–	565.01	–	538.83	–	515.14
90000 kPa, x2 = 0.2765	644.2	–	618.46	–	594.28	–	570.04	–	548.29
90000 kPa, x2 = 0.5052	635.05	622.2	609.27	597.11	584.67	572.07	559.81	548.42	537.76
90000 kPa, x2 = 0.7468	624.34	–	598.03	–	573.12	–	548.28	–	525.87
100000 kPa, x2 = 0.2765	649.78	–	625.01	–	601.6	–	578.09	–	557.44
100000 kPa, x2 = 0.5052	640.63	628.29	615.79	603.84	592.18	579.89	568.28	557.24	547.21
100000 kPa, x2 = 0.7468	629.98	–	604.67	–	580.81	–	557.19	–	535.38
120000 kPa, x2 = 0.2765	659.95	–	636.48	–	614.72	–	592.86	–	573.52
120000 kPa, x2 = 0.5052	650.88	639.23	627.71	616.54	605.4	593.88	583.05	572.89	563.63
120000 kPa, x2 = 0.7468	640.58	–	616.69	–	594.3	–	571.88	–	552.06
140000 kPa, x2 = 0.2765	669.13	–	647	–	626.08	–	605.66	–	587.48
140000 kPa, x2 = 0.5052	660.2	649.29	638.12	627.45	617.13	606.29	595.97	586.39	577.64
140000 kPa, x2 = 0.7468	649.88	–	627.42	–	606.32	–	584.98	–	566.38
160000 kPa, x2 = 0.2765	677.73	–	656.27	–	636.59	–	616.77	–	599.81
160000 kPa, x2 = 0.5052	668.68	658.13	647.73	637.64	627.68	617.17	607.43	598.41	590.03
160000 kPa, x2 = 0.7468	658.46	–	636.99	–	616.85	–	596.72	–	579.07
180000 kPa, x2 = 0.2765	685.38	–	665.05	–	645.76	–	626.93	–	610.74
180000 kPa, x2 = 0.5052	676.44	666.5	656.41	646.63	637.18	627.17	617.7	609.2	601.17
180000 kPa, x2 = 0.7468	666.22	–	645.7	–	626.62	–	606.99	–	590.35
200000 kPa, x2 = 0.2765	692.5	–	673	–	654.56	–	636.12	–	620.79
200000 kPa, x2 = 0.5052	683.68	674.16	664.56	655.11	645.89	636.19	627.01	619.16	611.27
200000 kPa, x2 = 0.7468	673.88	–	653.87	–	635.27	–	616.65	–	600.48

Source: the NIST ThermoML archive (doi:10.1016/j.jct.2007.03.012)
